Data on 18 molecules can be found in patent US20250197368A1 (priority 2020, published 2025).

Assay [1] deals with human α2β3γ2 GABAARs. The assay is described as follows: In vitro electrophysiological recording assay (automated patch-clamp), α2-GABAAR relative efficacy. Format: cell-based. To be noted: % efficacy normalised to diazepam; GABA EC10-20; concentration generally >= 100 times Ki. The procedure: The efficacy of modulators was evaluated using the automated patch-clamp platforms QPatch16 (Sophion, Copenhagen, Denmark) or SyncroPatch 384PE (Nanion, Germany).
For QPatch electrophysiology testing L(tk^−) cells stably expressing human α1β3γ2, α2β3γ2, α3β3γ2, α5β3γ2 GABAARs were used. HEK293 cells stably expressing human α1β3γ2L, α2β3γ2L, α3β3γ2L and α5β3γ2L GABAARs were used for the SyncroPatch 384PE experiments.
All experiments were carried out at room temperature (20-22° C.) using a standard whole cell procedure and physiological solutions. Gigaseals were formed upon execution of a combined suction/voltage protocol with subsequent increased suction leading to the whole-cell configuration.
The currents recorded were acquired at either 1 KHz or 2 KHz and filtered using a Bessel filter. Whole-cell currents were measured at a holding potential of-65 mV (QPatch) or −80 mV (SyncroPatch).
For QPatch experiments, the extracellular solution contained of: 145 mM NaCl, 4 mM KCl, 1 mM MgCl2, 2 mM CaCl2), 10 mM HEPES, 10 mM D-glucose (pH 7.4), and the intracellular solution consisted of: 96 mM KCl, 28 mM CsCl, 25 mM KOH, 4.3 mM CaCl2), 1.4 mM MgCl2, 10 mM EGTA, 10 mM HEPES, 3 mM MgATP (pH 7.2). The osmolarities of the extracellular and intracellular solutions were 305 and 295 mOsm respectively.
For SyncroPatch experiments, the extracellular recording solution contained: 140 mM NaCl, 4 mM KCl, 2 mM CaCl2), 1 mM MgCl2, 10 mM HEPES, 5 mM glucose (pH 7.4 with NaOH and osmolarity of c. 300-310 mOsm). The intracellular recording solution consisted of: 90 mM KCl, 50 mM KF, 1.5 mM MgCl2, 11.1 mM EGTA and 10 mM HEPES (pH 7.2 with KOH and osmolarity of c. 300 mOsm). 2 mM of NaATP was added to the intracellular solution on the day of testing.
The effects of modulators were evaluated in the presence of a submaximal GABA concentration, giving typically less than 30% activation of the response elicited by a saturating GABA concentration. To check and ensure baseline current stability before compound addition, two to five consecutive applications of GABA EC10-20 separated by wash steps were performed before compound addition. The test compound was applied 1 min at least prior to co-application with GABA EC10-20. Following a further wash step, a saturating concentration of GABA was applied at the end of each recording, allowing the accurate evaluation for each cell of the percentage baseline activation elicited by the submaximal GABA applied.
The compounds were first dissolved in DMSO as a 10 mM stock and then further diluted to the testing concentrations so that the final DMSO concentration in the extracellular recording solution was 0.1% (QPatch) or 0.2% (SyncroPatch).
The % efficacy of modulators was determined from the GABA elicited currents recorded in the presence and absence of the test compound, using the formula:
[((compound peak current−leak)−(GABA peak current-leak))/(GABA peak current−leak)]*100,
where ‘leak’ is the leak baseline current at the holding potential, ‘compound peak current’ is the current elicited by co-application of compound and GABA, and ‘GABA peak current’ is the current elicited by GABA alone at the last GABA application before compound addition. The results were presented as ‘relative efficacy’ for each compound generally at a concentration equal or higher than 100 times their determined Ki. The relative efficacy of a compound was calculated by normalising its % efficacy to the corresponding % efficacy of diazepam that was separately determined.
In general terms: In patch-clamp work, channel activity is measured electrically.

Assay [2] addresses human α2β3γ2 GABAARs (benzodiazepine site) (Homo sapiens (Human), UniProt P18507+P47869). The experiment in a line: In vitro radioligand binding assay ([3H]Ro15-1788 displacement), α2-GABAAR Ki. The protocol: The affinity (Ki) of compounds for the benzodiazepine site of human recombinant GABAARs was measured by their ability to inhibit the binding of the selective benzodiazepine antagonist [^3H]Ro15-1788 ([^3H] flumazenil).
Mouse L(tk^−) cells stably expressing human α1β3γ2, α2β3γ2, α3β3γ2, α5β3γ2 GABAARs were generated by transfection of the individual subunits in the dexamethasone-inducible expression vector pMSGneo in mouse L(tk^−) cells (Hadingham et al., 1993, Mol. Pharmacol. 43:970-975 and 1993, Mol. Pharmacol. 44:1211-1218).
L(tk^−) cells stably expressing human α1β3γ2, α2β3γ2, α3β3γ2, α5β3γ2 GABAARs were maintained in DMEM F12 medium supplemented with 10% Foetal Bovine Serum, 1% Penicillin/Streptomycin and 1 mg/mL Geneticin G418 in an incubator at 37° C. with a humidified atmosphere with 5% CO2. Dexamethasone was added to the culture medium to induce GABAAR expression.
L(tk−) cells were harvested and membranes were prepared for each receptor combination in either TE buffer (10 mM Tris·CI/0.1 mM EDTA, pH 7.5) or phosphate buffer (K2PO4 10 mM, pH 7.0) (Hadingham et al. (1992) Proc. Natl. Acad. Sci. USA; 89 (14): 6378-82). Protein concentration, receptor expression and the Kd of [^3H]Ro15-1788 were determined before Ki value of the compounds were evaluated. For Kd evaluation, saturation binding curves were obtained by incubating membrane with various concentrations of [^3H]Ro15-1788 (82.5 Ci/mM), with nonspecific binding measured in the presence of 1-3 μM TP003.
For Ki evaluation, cell membranes were incubated with 4 nM [^3H]Ro15-1788 along with a range of concentrations of test compound. Nonspecific binding was determined using 1-3 μM TP003. All incubations were performed for 1 hour at 4° C. in assay buffer. The total assay volume was 0.5 mL, containing 40 μg/well α1β3γ2, 30 μg/well α2β3γ2, 40 μg/well α3β3γ2 and 30 μg/well for α5β3γ2 of membrane protein. Incubations were terminated by filtration and washing with ice cold Tris-HCl buffer (50 mM, pH=7.4) over Whatman GF/B filters and the radioactivity of the filters was measured using liquid scintillation counting.
The % inhibition of [^3H]Ro15-1788 binding was plotted as a function of compound concentration and the IC50 calculated. From the IC50, the affinity (Ki) was calculated using the method of Cheng and Prusoff using the Kd values obtained for [^3H]Ro15-1788.

human α2β3γ2 GABAARs (benzodiazepine site), sequence (P47869 29-451): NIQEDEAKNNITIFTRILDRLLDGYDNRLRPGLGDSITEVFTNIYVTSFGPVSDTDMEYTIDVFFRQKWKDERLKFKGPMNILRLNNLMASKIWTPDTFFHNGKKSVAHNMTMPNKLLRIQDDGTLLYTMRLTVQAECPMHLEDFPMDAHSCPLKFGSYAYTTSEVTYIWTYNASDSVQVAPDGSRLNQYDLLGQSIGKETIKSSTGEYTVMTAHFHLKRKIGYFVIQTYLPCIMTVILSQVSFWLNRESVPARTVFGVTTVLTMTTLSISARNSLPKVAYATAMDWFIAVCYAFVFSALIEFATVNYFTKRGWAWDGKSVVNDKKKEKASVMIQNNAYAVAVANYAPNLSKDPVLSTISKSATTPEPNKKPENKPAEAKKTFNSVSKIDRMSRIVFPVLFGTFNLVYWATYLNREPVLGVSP
human α2β3γ2 GABAARs (benzodiazepine site), sequence (P28472 26-473 partner): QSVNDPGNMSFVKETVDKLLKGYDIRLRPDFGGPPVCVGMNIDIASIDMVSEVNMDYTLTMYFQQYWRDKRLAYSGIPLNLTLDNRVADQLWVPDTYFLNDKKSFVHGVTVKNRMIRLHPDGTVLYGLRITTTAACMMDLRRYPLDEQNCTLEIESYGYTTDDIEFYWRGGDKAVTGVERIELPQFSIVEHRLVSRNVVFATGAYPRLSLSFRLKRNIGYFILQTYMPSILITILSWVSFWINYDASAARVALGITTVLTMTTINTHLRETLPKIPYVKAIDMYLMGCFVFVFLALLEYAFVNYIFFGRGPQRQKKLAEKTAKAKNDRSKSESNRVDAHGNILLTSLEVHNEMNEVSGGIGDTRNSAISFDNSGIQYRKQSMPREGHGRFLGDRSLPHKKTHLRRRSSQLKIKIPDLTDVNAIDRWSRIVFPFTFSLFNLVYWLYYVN
human α2β3γ2 GABAARs (benzodiazepine site), sequence (P18507 40-475): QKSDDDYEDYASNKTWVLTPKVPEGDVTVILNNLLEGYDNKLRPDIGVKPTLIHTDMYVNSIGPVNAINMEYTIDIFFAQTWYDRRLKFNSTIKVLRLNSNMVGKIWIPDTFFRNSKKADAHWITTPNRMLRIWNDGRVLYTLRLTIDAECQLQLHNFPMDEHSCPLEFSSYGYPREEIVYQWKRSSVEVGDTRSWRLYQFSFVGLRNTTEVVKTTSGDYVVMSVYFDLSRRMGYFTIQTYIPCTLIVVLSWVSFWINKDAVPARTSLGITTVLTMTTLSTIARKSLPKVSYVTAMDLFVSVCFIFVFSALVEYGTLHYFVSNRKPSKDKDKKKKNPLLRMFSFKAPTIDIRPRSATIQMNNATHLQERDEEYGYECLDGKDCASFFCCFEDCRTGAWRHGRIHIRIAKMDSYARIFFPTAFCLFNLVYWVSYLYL

For orientation: Ki means the equilibrium dissociation constant of an inhibitor or competing ligand from its target. Regarding `COc1ccncc1-c1cccc2c(N)c(C(=O)NCC3CC3)c(=O)n(C)c12` [Example 78, 4-Amino-N-(cyclopropylmethyl)-8-(4-methoxy-3-pyridyl)-1-methyl-2-oxo-quinoline-3-carboxamide], the “α2-GABAAR Relative Efficacy (vs. Diazepam)” value (from here on “α2-GABAAR Relative Efficacy”) in assay [1] was determined as 0.70. The Ki in assay [2] was determined as 2.11 nM.
The matching figures for `CCCNC(=O)c1c(N)c2cccc(-c3c(C)noc3C)c2[nH]c1=O` [Example 54, 4-Amino-8-(3,5-dimethylisoxazol-4-yl)-2-oxo-N-propyl-1H-quinoline-3-carboxamide]: 0.07 and 20 nM.
The matching figures for `CCCNC(=O)c1c(N)c2cccc(-c3ncc(F)cc3F)c2[nH]c1=O` [Example 6, 4-Amino-8-(3,5-difluoro-2-pyridyl)-2-oxo-N-propyl-1H-quinoline-3-carboxamide]: 0.10 and 0.87 nM.
In the case of `CCCNC(=O)c1c(N)c2cccc(-c3cn(C)nc3C)c2n(C)c1=O` [Example 80, 4-Amino-8-(1,3-dimethylpyrazol-4-yl)-1-methyl-2-oxo-N-propyl-quinoline-3-carboxamide], the “α2-GABAAR Relative Efficacy” value in assay [1] is listed as 0.6. For the same molecule, the Ki in assay [2] is 4.44 nM.
The matching figures for `CCCNC(=O)c1c(N)c2cccc(-c3cncc(F)c3)c2[nH]c1=O` [Example 22, 4-Amino-8-(5-fluoro-3-pyridyl)-2-oxo-N-propyl-1H-quinoline-3-carboxamide]: 0.19 and 13.6 nM.
Consider `CCCNC(=O)c1c(N)c2cccc(-c3cccc(C(F)F)n3)c2[nH]c1=O` [Example 3, 4-Amino-8-[6-(difluoromethyl)-2-pyridyl]-2-oxo-N-propyl-1H-quinoline-3-carboxamide], for which the “α2-GABAAR Relative Efficacy” value in assay [1] is 0.29. Moreover, the Ki in assay [2] turned out to be 1.99 nM.
The matching figures for `CCCNC(=O)c1c(N)c2cccc(-c3cc(COc4ccccn4)ncc3F)c2[nH]c1=O` [Example 104, 4-Amino-8-(5-fluoro-2-((pyridin-2-yloxy)methyl)pyridin-4-yl)-2-oxo-N-propyl-1,2-dihydroquinoline-3-carboxamide]: 0.27 and 2.08 nM.
As to `CCCNC(=O)c1c(N)c2cccc(-c3cncc(OC)c3C)c2[nH]c1=O` [Example 24, 4-Amino-8-(5-methoxy-4-methylpyridin-3-yl)-2-oxo-N-propyl-1,2-dihydroquinoline-3-carboxamide], in assay [1], the “α2-GABAAR Relative Efficacy” value came to 0.21. Also, the Ki in assay [2] was found to be 4.11 nM.
With `CCCNC(=O)c1c(N)c2cccc(-c3cncc(C)n3)c2[nH]c1=O` [Example 46, 4-Amino-8-(6-methylpyrazin-2-yl)-2-oxo-N-propyl-1,2-dihydroquinoline-3-carboxamide], the “α2-GABAAR Relative Efficacy” value in assay [1] is 0.02. Further, the Ki in assay [2] is 2.37 nM.
As for `CCCNC(=O)c1c(N)c2cccc(-c3ccncn3)c2[nH]c1=O` [Example 36, 4-Amino-2-oxo-N-propyl-8-pyrimidin-4-yl-1H-quinoline-3-carboxamide], the “α2-GABAAR Relative Efficacy” value in assay [1] was found to be 0.05. Also, the inhibition constant (Ki) in assay [2] was 3.69 nM.
For the molecule `CCCNC(=O)c1c(N)c2cccc(-c3cnccn3)c2[nH]c1=O` [Example 45, 4-Amino-2-oxo-N-propyl-8-(pyrazin-2-yl)-1,2-dihydroquinoline-3-carboxamide], the “α2-GABAAR Relative Efficacy” value in assay [1] came out at 0.11. For the same molecule, the inhibition constant (Ki) in assay [2] turned out to be 5.04 nM.
`CCNC(=O)c1c(N)c2cccc(-c3cnccc3OC)c2[nH]c1=O` [Example 56, 4-Amino-N-ethyl-8-(4-methoxy-3-pyridyl)-2-oxo-1H-quinoline-3-carboxamide]: the “α2-GABAAR Relative Efficacy” value in assay [1] is given as 0.34. Further, the Ki in assay [2] is 6.62 nM.
The matching figures for `CCCNC(=O)c1c(N)c2cccc(-c3cccc(OC(F)(F)F)n3)c2[nH]c1=O` [Example 1, 4-Amino-2-oxo-N-propyl-8-[6-(trifluoromethoxy)-2-pyridyl]-1H-quinoline-3-carboxamide]: 0.13 and 0.79 nM.
As for `CCCNC(=O)c1c(N)c2cccc(-c3cc(OCc4cc[nH]n4)ccc3F)c2[nH]c1=O` [Example 127, 4-Amino-8-[2-fluoro-5-(1H-pyrazol-3-ylmethoxy)phenyl]-2-oxo-N-propyl-1H-quinoline-3-carboxamide], the “α2-GABAAR Relative Efficacy” value in assay [1] came out at 0.24. Further, the Ki in assay [2] came out at 0.78 nM.
The matching figures for `CCCNC(=O)c1c(N)c2cccc(-c3cc(OCc4cn(C)nn4)ccc3F)c2[nH]c1=O` [Example 129, 4-Amino-8-[2-fluoro-5-[(1-methyltriazol-4-yl)methoxy]phenyl]-2-oxo-N-propyl-1H-quinoline-3-carboxamide]: 0.25 and 0.65 nM.
The matching figures for `CCCNC(=O)c1c(N)c2cccc(-c3cc(OCc4ccc(C#N)cn4)ccc3F)c2[nH]c1=O` [Example 99, 4-Amino-8-[5-[(5-cyano-2-pyridyl)methoxy]-2-fluoro-phenyl]-2-oxo-N-propyl-1H-quinoline-3-carboxamide]: 0.28 and 0.24 nM.
The matching figures for `Cc1nn(C)cc1-c1cccc2c(N)c(C(=O)NCCC(F)(F)F)c(=O)[nH]c12` [Example 73, 4-Amino-8-(1,3-dimethylpyrazol-4-yl)-2-oxo-N-(3,3,3-trifluoropropyl)-1H-quinoline-3-carboxamide]: 0.48 and 3.08 nM.
Take `CCCNC(=O)c1c(N)c2cccc(-c3cc(OCc4cncn4C)ccc3F)c2[nH]c1=O` [Example 125, 4-Amino-8-(2-fluoro-5-((1-methyl-1H-imidazol-5-yl)methoxy)phenyl)-2-oxo-N-propyl-1,2-dihydroquinoline-3-carboxamide]: the “α2-GABAAR Relative Efficacy” value in assay [1] stood at 0.22. Also, the Ki in assay [2] was 0.37 nM.
